Test results published in article PMC7707621, “Oxidized Juncuenin B Analogues with Increased Antiproliferative Activity on Human Adherent Cell Lines: Semisynthesis and Biological Evaluation” (Journal of Natural Products, 2020).

tested on: HeLa cells; test: MTT antiproliferative assay on HeLa; type: cell-based, human; details: Homo sapiens, HeLa, 10 μM; read-out: Growth inhibition (% ± SEM), HeLa
Description: (§1) The antiproliferative assays of the products were carried out by a standard MTT method on human breast (MCF-7, T47D), cervical (HeLa, SiHa, C33A), and ovarian (A2780) cancer cells, and NIH/3T3 mouse embryonic fibroblast cell lines. In the first step, the diastereomeric and racemic mixtures 1–11 and the starting compound, juncuenin B, were tested to obtain information about their antiproliferative activity.
(§2) The antiproliferative activity and tumor selectivity of the compounds were measured by standard MTT assays. Tumor cell lines MCF-7, T47D, HeLa, A2780, and noncancerous NIH/3T3 were provided by European Collection of Authenticated Cell Cultures (ECACC, Salisbury, UK); cell lines SiHa and C33A by LGC Standards GmbH (Wesel, Germany). All chemicals and materials used for the antiproliferative assays were purchased from Sigma Aldrich Ltd. (Budapest, Hungary).
(§3) Growth-inhibition properties of racemates and pure enantiomer compounds were determined by standard MTT assays on six human malignant gynecological cell lines (MCF-7, T47D, HeLa, SiHa, C33A, A2780). To investigate tumor selectivity, the MTT assay was repeated on mouse embryonic fibroblast cells (NIH/3T3) under the same conditions. All cell lines were maintained in minimal essential medium (MEM) supplemented with 10% fetal bovine serum, 1% nonessential amino acids, and 1% penicillin–streptomycin–amphotericin B mixture, and were stored in humidified air containing 5% CO2 at 37 °C. All cell types were seeded into 96–well plates at a density of 5000 with the exception of C33a, which was seeded at a density of 10 000 and treated by increasing concentrations (0.1–30 μM) of the compounds for 72 h under cell culturing conditions. After the incubation, 5 mg/mL MTT [3-(4,5-dimethylthiazol-2-yl)-2,5-diphenyltetrazolium bromide] solution was added to samples for 4 h and precipitated blue formazan crystals were dissolved in DMSO. Absorbance values of the samples were measured at 545 nm using a microplate reader (Stat Fax-2100, Awareness Technologies Inc., Palm City, FL, USA) and untreated cells were used as control. Normalized sigmoidal dose–response curves were fitted to the determined data and the IC50 values were calculated by GraphPad Prism 5.01 (GraphPad Software, San Diego, CA, USA). Cisplatin (Ebewe Pharma GmbH, Unterach, Austria) was used as a reference agent in the same concentration range.

Which inhibition at 10 µM does the source give for `C=CC1=C(C)C(=O)C=C2c3ccc(O)c(C)c3CC[C@@]21OC` [Compound 4a] here?
Its inhibition at 10 µM is 88.1 ± 0.89%.

Which inhibition at 10 µM does the source give for `C=CC1=C(C)C(=O)C=C2c3ccc(O)c(C)c3CC[C@@]21OCC` [Compound 7a, 8a-ethoxy-1,7-dimethyl-6-oxo-8-vinyl-9,10-dihydrophenanthrene-2-ols] here?
The inhibition at 10 µM was 71.1 ± 1.57%.

same assay, conditions: Homo sapiens, HeLa, 30 μM; read-out: Growth inhibition (% ± SEM), HeLa

How did the inhibition at 30 µM turn out when `C=CC1=C(C)C(=O)C=C2c3ccc(O)c(C)c3CC[C@@]21OC` [Compound 4a] was run?
Its inhibition at 30 µM is 62.3 ± 2%.

How did the inhibition at 30 µM turn out when `C=CC1=C(C)C(=O)C=C2c3ccc(O)c(C)c3CC[C@@]21OCC` [Compound 7a, 8a-ethoxy-1,7-dimethyl-6-oxo-8-vinyl-9,10-dihydrophenanthrene-2-ols] was run?
The inhibition at 30 µM was 86.1 ± 1.29%.

tested on: C33A cells; test: MTT antiproliferative assay on C33A; type: cell-based, human; details: Homo sapiens, C-33-A, 10 μM; read-out: Growth inhibition (% ± SEM), C33a
Description: as §1, §2, §3

For `C=CC1=C(C)C(=O)C=C2c3ccc(O)c(C)c3CC[C@@]21OC` [Compound 4a], which inhibition at 10 µM is on record?
Its inhibition at 10 µM is 58.41 ± 0.31%.

Which inhibition at 10 µM does the source give for `C=CC1=C(C)C(=O)C=C2c3ccc(O)c(C)c3CC[C@@]21OCC` [Compound 7a, 8a-ethoxy-1,7-dimethyl-6-oxo-8-vinyl-9,10-dihydrophenanthrene-2-ols] here?
Its inhibition at 10 µM is 73.18 ± 0.61%.

same assay, conditions: Homo sapiens, C-33-A, 30 μM; read-out: Growth inhibition (% ± SEM), C33a

Which inhibition at 30 µM does the source give for `C=CC1=C(C)C(=O)C=C2c3ccc(O)c(C)c3CC[C@@]21OC` [Compound 4a] here?
Its inhibition at 30 µM is 66.6 ± 0.74%.

With `C=CC1=C(C)C(=O)C=C2c3ccc(O)c(C)c3CC[C@@]21OCC` [Compound 7a, 8a-ethoxy-1,7-dimethyl-6-oxo-8-vinyl-9,10-dihydrophenanthrene-2-ols] as the compound, how does the inhibition at 30 µM read?
Its inhibition at 30 µM is 86.42 ± 0.5%.

tested on: T47D cells; test: MTT antiproliferative assay on T47D; type: cell-based, human; details: Homo sapiens, T47D, 10 μM; read-out: Growth inhibition (% ± SEM), T47d
Description: as §1, §2, §3

Which inhibition at 10 µM does the source give for `C=CC1=C(C)C(=O)C=C2c3ccc(O)c(C)c3CC[C@@]21OC` [Compound 4a] here?
The inhibition at 10 µM was 37 ± 1.07%.

`C=CC1=C(C)C(=O)C=C2c3ccc(O)c(C)c3CC[C@@]21OCC` [Compound 7a, 8a-ethoxy-1,7-dimethyl-6-oxo-8-vinyl-9,10-dihydrophenanthrene-2-ols] was tested. Which inhibition at 10 µM did it give?
Its inhibition at 10 µM is 57.4 ± 2.46%.

same assay, conditions: Homo sapiens, T47D, 30 μM; read-out: Growth inhibition (% ± SEM), T47d

How did the inhibition at 30 µM turn out when `C=CC1=C(C)C(=O)C=C2c3ccc(O)c(C)c3CC[C@@]21OC` [Compound 4a] was run?
Its inhibition at 30 µM is 48.1 ± 1.47%.

With `C=CC1=C(C)C(=O)C=C2c3ccc(O)c(C)c3CC[C@@]21OCC` [Compound 7a, 8a-ethoxy-1,7-dimethyl-6-oxo-8-vinyl-9,10-dihydrophenanthrene-2-ols] as the compound, how does the inhibition at 30 µM read?
The inhibition at 30 µM was 57 ± 1.24%.

same assay, conditions: Homo sapiens, T47D; MTT, 0.1–30 μM, 72 h, mean ± SEM; read-out: calculated IC50 values, T47D

Which IC50 does the source give for `C=CC1=C(C)C(=O)C=C2c3ccc(O)c(C)c3CC[C@@]21OC` [Compound 4a] here?
The IC50 was greater than 30 µM.

tested on: SiHa cells; test: MTT antiproliferative assay on SiHa; type: cell-based, human; details: Homo sapiens, SiHa, 10 μM; read-out: Growth inhibition (% ± SEM), SiHa
Description: as §1, §2, §3

For `C=CC1=C(C)C(=O)C=C2c3ccc(O)c(C)c3CC[C@@]21OC` [Compound 4a], which inhibition at 10 µM is on record?
The inhibition at 10 µM was less than 10%.

Which inhibition at 10 µM does the source give for `C=CC1=C(C)C(=O)C=C2c3ccc(O)c(C)c3CC[C@@]21OCC` [Compound 7a, 8a-ethoxy-1,7-dimethyl-6-oxo-8-vinyl-9,10-dihydrophenanthrene-2-ols] here?
The inhibition at 10 µM was 17 ± 1.88%.

same assay, conditions: Homo sapiens, SiHa, 30 μM; read-out: Growth inhibition (% ± SEM), SiHa

How did the inhibition at 30 µM turn out when `C=CC1=C(C)C(=O)C=C2c3ccc(O)c(C)c3CC[C@@]21OC` [Compound 4a] was run?
Its inhibition at 30 µM is 26.3 ± 1.36%.

`C=CC1=C(C)C(=O)C=C2c3ccc(O)c(C)c3CC[C@@]21OCC` [Compound 7a, 8a-ethoxy-1,7-dimethyl-6-oxo-8-vinyl-9,10-dihydrophenanthrene-2-ols] was tested. Which inhibition at 30 µM did it give?
The inhibition at 30 µM was less than 10%.

same assay, conditions: Homo sapiens, SiHa; MTT, 0.1–30 μM, 72 h, mean ± SEM; read-out: calculated IC50 values, SiHa

How did the IC50 turn out when `C=CC1=C(C)C(=O)C=C2c3ccc(O)c(C)c3CC[C@@]21OC` [Compound 4a] was run?
The IC50 was greater than 30 µM.

For `C=CC1=C(C)C(=O)C=C2c3ccc(O)c(C)c3CC[C@@]21OCC` [Compound 7a, 8a-ethoxy-1,7-dimethyl-6-oxo-8-vinyl-9,10-dihydrophenanthrene-2-ols], which IC50 is on record?
The IC50 was greater than 30 µM.

tested on: A2780 cells; test: MTT antiproliferative assay on A2780; type: cell-based, human; details: Homo sapiens, A2780, 10 μM; read-out: Growth inhibition (% ± SEM), A2780
Description: as §1, §2, §3

With `C=CC1=C(C)C(=O)C=C2c3ccc(O)c(C)c3CC[C@@]21OC` [Compound 4a] as the compound, how does the inhibition at 10 µM read?
The inhibition at 10 µM was 44.5 ± 2.01%.

`C=CC1=C(C)C(=O)C=C2c3ccc(O)c(C)c3CC[C@@]21OCC` [Compound 7a, 8a-ethoxy-1,7-dimethyl-6-oxo-8-vinyl-9,10-dihydrophenanthrene-2-ols] was tested. Which inhibition at 10 µM did it give?
Its inhibition at 10 µM is 82.1 ± 0.54%.

same assay, conditions: Homo sapiens, A2780, 30 μM; read-out: Growth inhibition (% ± SEM), A2780

With `C=CC1=C(C)C(=O)C=C2c3ccc(O)c(C)c3CC[C@@]21OC` [Compound 4a] as the compound, how does the inhibition at 30 µM read?
Its inhibition at 30 µM is 73.18 ± 0.4%.

With `C=CC1=C(C)C(=O)C=C2c3ccc(O)c(C)c3CC[C@@]21OCC` [Compound 7a, 8a-ethoxy-1,7-dimethyl-6-oxo-8-vinyl-9,10-dihydrophenanthrene-2-ols] as the compound, how does the inhibition at 30 µM read?
The inhibition at 30 µM was 84.75 ± 0.4%.

tested on: MCF-7 cells; test: MTT antiproliferative assay on MCF-7; type: cell-based, human; details: Homo sapiens, MCF7, 10 μM; read-out: Growth inhibition (% ± SEM), MCF-7
Description: as §1, §2, §3

How did the inhibition at 10 µM turn out when `C=CC1=C(C)C(=O)C=C2c3ccc(O)c(C)c3CC[C@@]21OC` [Compound 4a] was run?
Its inhibition at 10 µM is 61.5 ± 1.87%.

How did the inhibition at 10 µM turn out when `C=CC1=C(C)C(=O)C=C2c3ccc(O)c(C)c3CC[C@@]21OCC` [Compound 7a, 8a-ethoxy-1,7-dimethyl-6-oxo-8-vinyl-9,10-dihydrophenanthrene-2-ols] was run?
Its inhibition at 10 µM is 41.7 ± 1.37%.

same assay, conditions: Homo sapiens, MCF7, 30 μM; read-out: Growth inhibition (% ± SEM), MCF-7

How did the inhibition at 30 µM turn out when `C=CC1=C(C)C(=O)C=C2c3ccc(O)c(C)c3CC[C@@]21OC` [Compound 4a] was run?
The inhibition at 30 µM was 58.5 ± 0.86%.

Which inhibition at 30 µM does the source give for `C=CC1=C(C)C(=O)C=C2c3ccc(O)c(C)c3CC[C@@]21OCC` [Compound 7a, 8a-ethoxy-1,7-dimethyl-6-oxo-8-vinyl-9,10-dihydrophenanthrene-2-ols] here?
The inhibition at 30 µM was 54.5 ± 1.33%.

same assay, conditions: Homo sapiens, MCF7; MTT, 0.1–30 μM, 72 h, mean ± SEM; read-out: calculated IC50 values, MCF-7

With `C=CC1=C(C)C(=O)C=C2c3ccc(O)c(C)c3CC[C@@]21OCC` [Compound 7a, 8a-ethoxy-1,7-dimethyl-6-oxo-8-vinyl-9,10-dihydrophenanthrene-2-ols] as the compound, how does the IC50 read?
Its IC50 is 20.6 ± 0.3 µM.

tested on: NIH/3T3 mouse embryonic fibroblast cells; test: MTT assay for tumor selectivity on NIH/3T3; type: cell-based; details: MTT
Description: as §1, §2, §3

Which “activity against nontumoral NIH/3T3 cells (in words)” value does the source give for `C=CC1=C(C)C(=O)C=C2c3ccc(O)c(C)c3CC[C@@]21OCC` [Compound 7a, 8a-ethoxy-1,7-dimethyl-6-oxo-8-vinyl-9,10-dihydrophenanthrene-2-ols] here?
The value was “inactive”.

same assay, conditions: Mus musculus, NIH3T3; 10 μM; read-out: Growth inhibition (% ± SEM), NIH

For `C=CC1=C(C)C(=O)C=C2c3ccc(O)c(C)c3CC[C@@]21OC` [Compound 4a], which inhibition at 10 µM is on record?
Its inhibition at 10 µM is 19.2 ± 1.41%.

For `C=CC1=C(C)C(=O)C=C2c3ccc(O)c(C)c3CC[C@@]21OCC` [Compound 7a, 8a-ethoxy-1,7-dimethyl-6-oxo-8-vinyl-9,10-dihydrophenanthrene-2-ols], which inhibition at 10 µM is on record?
Its inhibition at 10 µM is 23.3 ± 1.48%.

same assay, conditions: Mus musculus, NIH3T3; 30 μM; read-out: Growth inhibition (% ± SEM), NIH

How did the inhibition at 30 µM turn out when `C=CC1=C(C)C(=O)C=C2c3ccc(O)c(C)c3CC[C@@]21OC` [Compound 4a] was run?
Its inhibition at 30 µM is 51.7 ± 1.68%.

For `C=CC1=C(C)C(=O)C=C2c3ccc(O)c(C)c3CC[C@@]21OCC` [Compound 7a, 8a-ethoxy-1,7-dimethyl-6-oxo-8-vinyl-9,10-dihydrophenanthrene-2-ols], which inhibition at 30 µM is on record?
Its inhibition at 30 µM is 33.8 ± 1.74%.
